System: SW 1271 complex spheroids, viability
Assay: Anticancer human tumor SW 1271 cell line growth inhibition [LSD1];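 note: spheroids exposed to agents for 7 days before luminescence read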;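 for viability, T/C: 100% = DMSO vehicle control viability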
Conditions: for IC50: curve of first compound; for viability, T/C: stronger effect = lower value
Description: Multicellular complex tumor spheroid response to LSD1 Inhibitor Iadademstat in combination with a variety of drugs and investigational agents in selected tumor cell lines
The current study was undertaken to assess response to LSD1 inhibitors in combination with standard-of-care drugs and investigational agents in solid tumor complex spheroid models as well as in the K-562 leukemia. Complex spheroids include a stromal component modeled by human endothelial cells (HUVEC) and fibroblasts modeled by human mesenchymal stem cells (MSCs). The concentration ranges selected for each drug and investigational agent were based upon clinically achievable concentrations if the clinical Cmax of the agent was known.
Compounds. The drugs and investigational agents used in this study are listed on Table 1. All of the agents used, including staurosporine (NSC755774) and gemcitabine (NSC613327), were obtained from the Developmental Therapeutics Program, NCI. FDA-approved anticancer drugs are available from the NCI at http://dtp.nci.nih.gov/branches/dscb/oncology_drugset_explanation.html. Drugs and investigational agents were >95% pure by proton nuclear magnetic resonance (NMR) and liquid chromatography/mass spectrometry (LC/MS). Stock solutions were prepared at 400x in DMSO, stored at -70 degrees C, and diluted in fresh medium prior to their use. The final concentration of DMSO in cell culture wells never exceeded 0.25% (v/v). The FDA-approved anticancer drug set is available from the Developmental Therapeutics Program at https://dtp.cancer.gov/organization/dscb/obtaining/available_plates.htm. All drugs and investigational agents were tested over a range starting from a high concentration at or near the clinical Cmax and decreasing in half-log increments. If the clinical Cmax for an agent had not been determined, the highest concentration tested was 10 microM.
Cell Lines. The patient-derived cancer cell (PDC) lines: 292921-168-R-J2-PDC, K24384-001-R-PDC, and 521955-158-R2-J5-PDC pancreatic carcinomas, 556581-035-R-J1 ovarian carcinoma, 324938-238-R-J1-PDC, 855422-203-R-J1-PDC and 883617-216-R-J1-PDC urothelial bladder carcinomas, 743489-274-T-PDC renal cell carcinoma, 138582-R-J1 Merkel cell tumor, K60290-347-R-J1 and K57222-313-R-J1-PDC glioblastomas, 653999-131-R-J2-PDC, LG0703-F948-PDC, and 349418-098-R-PDC non-small cell lung carcinomas, 885512-296-R-J2-PDC, 171881-019-R-J1-PDC breast carcinomas and 186277-243-T-J2-PDC and 233499-124-R-J2-PDC colon carcinomas were obtained from the NCI Patient-Derived Models Repository (PDMR, https://pdmr.cancer.gov). The established cell lines NCI/ADR-RES (RRID:CVCL_14520 and OVCAR-5 (RRID:CVCL_1628) ovarian carcinomas, 786-O (RRID:CVCL_1051) and A498 (RRID:CVCL_A498) renal cell carcinoma, NCI-H211 (ATCC, cat. CRL-5824; RRID:CVCL_1529), NCI-H196 (ATCC, cat. CRL-5823, RRID:CVCL_1509), SW 1271 (ATCC, cat. CRL-2177, RRID:CVCL_1716) and NCI-H1876 (ATCC, cat. CRL-5902, RRID:CVCL_1503) small cell lung carcinomas, MDA-MB-231 (RRID:CVCL_0062) and MDA-MB-468 (RRID:CVCL_0419)breast carcinomas (10-12). Pooled donor human umbilical vein endothelial cells (HUVEC, Lonza, cat. CC-2519) and human mesenchymal stem cells (hMSC, Lonza, cat. PT-2501) were purchased from Lonza (Walkersville, MD).
Cell Culture. All cells were maintained in an incubator at 37 degrees C and 5% CO2 with 95% humidity. The PDC lines were cultured according to standard operating procedures established by the NCI PDMR (https://pdmr.cancer.gov). Briefly all PDCs were thawed and cultured in Matrigel-coated flasks prepared with a working solution of 1X Ham's F-12 nutrient mix, without supplementation (Invitrogen, Waltham, MA, cat. 11765054), 100 U/mL penicillin-streptomycin (Invitrogen, cat. 15140122), and 2.5% Matrigel (Corning Inc., Corning, NY, cat. 354248) for the first three passages. […]

[1] = second compound 0.1 µM, first compound 0.00949 µM
[2] = second compound 0.1 µM, first compound 0.03 µM
[3] = second compound 0.1 µM, first compound 0.0949 µM
[4] = second compound 0.1 µM, first compound 0.3 µM
[5] = second compound 0.316 µM, first compound 0.00949 µM
[6] = second compound 0.316 µM, first compound 0.03 µM
[7] = second compound 0.316 µM, first compound 0.0949 µM
[8] = second compound 0.316 µM, first compound 0.3 µM
[9] = second compound 1 µM, first compound 0.00949 µM
[10] = second compound 1 µM, first compound 0.03 µM
[11] = second compound 1 µM, first compound 0.0949 µM
[12] = second compound 1 µM, first compound 0.3 µM
[13] = second compound 3.16 µM, first compound 0.00949 µM
[14] = second compound 3.16 µM, first compound 0.03 µM
[15] = second compound 3.16 µM, first compound 0.0949 µM
[16] = second compound 3.16 µM, first compound 0.3 µM
[17] = second compound 10 µM, first compound 0.00949 µM
[18] = second compound 10 µM, first compound 0.03 µM
[19] = second compound 10 µM, first compound 0.0949 µM
[20] = second compound 10 µM, first compound 0.3 µM

Structure (SMILES): CC[C@@]1(O)C(=O)OCc2c1cc1n(c2=O)Cc2cc3c(CN(C)C)c(O)ccc3nc2-1 + NC1CC1c1ccc(-c2cccc(O)c2)cc1
- IC50 (second compound 0.1 µM): 52.6 nM
- IC50 (second compound 0.316 µM): 44.6 nM
- IC50 (second compound 1 µM): 27.8 nM
- IC50 (second compound 3.16 µM): > 100 nM
- IC50 (second compound 10 µM): 57 nM
- viability, T/C (second compound 0.1 µM, first compound 0.000316 µM): 93.2%
- viability, T/C (second compound 0.1 µM, first compound 0.001 µM): 81.3%
- viability, T/C (second compound 0.1 µM, first compound 0.00316 µM): 72.5%
- viability, T/C (second compound 0.1 µM, first compound 0.01 µM): 63.6%
- viability, T/C (second compound 0.1 µM, first compound 0.0316 µM): 55.9%
- viability, T/C (second compound 0.1 µM, first compound 0.1 µM): 43.5%
- viability, T/C (second compound 0.316 µM, first compound 0.000316 µM): 83%
- viability, T/C (second compound 0.316 µM, first compound 0.001 µM): 79.4%
- viability, T/C (second compound 0.316 µM, first compound 0.00316 µM): 77.4%
- viability, T/C (second compound 0.316 µM, first compound 0.01 µM): 63.6%
- viability, T/C (second compound 0.316 µM, first compound 0.0316 µM): 54.7%
- viability, T/C (second compound 0.316 µM, first compound 0.1 µM): 41.6%
- viability, T/C (second compound 1 µM, first compound 0.000316 µM): 76.6%
- viability, T/C (second compound 1 µM, first compound 0.001 µM): 79.5%
- viability, T/C (second compound 1 µM, first compound 0.00316 µM): 69.1%
- viability, T/C (second compound 1 µM, first compound 0.01 µM): 53.4%
- viability, T/C (second compound 1 µM, first compound 0.0316 µM): 52.4%
- viability, T/C (second compound 1 µM, first compound 0.1 µM): 46.5%
- viability, T/C (second compound 3.16 µM, first compound 0.000316 µM): 84.9%
- viability, T/C (second compound 3.16 µM, first compound 0.001 µM): 75.5%
- viability, T/C (second compound 3.16 µM, first compound 0.00316 µM): 66%
- viability, T/C (second compound 3.16 µM, first compound 0.01 µM): 59.2%
- viability, T/C (second compound 3.16 µM, first compound 0.0316 µM): 54.3%
- viability, T/C (second compound 3.16 µM, first compound 0.1 µM): 50.5%
- viability, T/C (second compound 10 µM, first compound 0.000316 µM): 74.7%
- viability, T/C (second compound 10 µM, first compound 0.001 µM): 78.9%
- viability, T/C (second compound 10 µM, first compound 0.00316 µM): 62.1%
- viability, T/C (second compound 10 µM, first compound 0.01 µM): 58.2%
- viability, T/C (second compound 10 µM, first compound 0.0316 µM): 54.1%
- viability, T/C (second compound 10 µM, first compound 0.1 µM): 47.3%

Structure (SMILES): COc1cc(C2c3cc4c(cc3C(OC3OC5COC(C)OC5C(O)C3O)C3COC(=O)C23)OCO4)cc(OC)c1O (stereo not given) + NC1CC1c1ccc(-c2cccc(O)c2)cc1
- IC50 (second compound 0.1 µM): 1390 nM
- IC50 (second compound 0.316 µM): > 3000 nM
- IC50 (second compound 1 µM): 582 nM
- IC50 (second compound 3.16 µM): > 3000 nM
- IC50 (second compound 10 µM): 289 nM
- viability, T/C [1]: 84.4%
- viability, T/C [2]: 68.3%
- viability, T/C [3]: 63.8%
- viability, T/C [4]: 53.7%
- viability, T/C (second compound 0.1 µM, first compound 0.949 µM): 56.7%
- viability, T/C (second compound 0.1 µM, first compound 3 µM): 44.4%
- viability, T/C [5]: 70.7%
- viability, T/C [6]: 58.9%
- viability, T/C [7]: 67.7%
- viability, T/C [8]: 52.8%
- viability, T/C (second compound 0.316 µM, first compound 0.949 µM): 49.9%
- viability, T/C (second compound 0.316 µM, first compound 3 µM): 54%
- viability, T/C [9]: 79.2%
- viability, T/C [10]: 67.9%
- viability, T/C [11]: 62.9%
- viability, T/C [12]: 57.1%
- viability, T/C (second compound 1 µM, first compound 0.949 µM): 45.8%
- viability, T/C (second compound 1 µM, first compound 3 µM): 38%
- viability, T/C [13]: 64.9%
- viability, T/C [14]: 55.2%
- viability, T/C [15]: 61.3%
- viability, T/C [16]: 48.2%
- viability, T/C (second compound 3.16 µM, first compound 0.949 µM): 48.5%
- viability, T/C (second compound 3.16 µM, first compound 3 µM): 59.9%
- viability, T/C [17]: 61%
- viability, T/C [18]: 60.9%
- viability, T/C [19]: 53.1%
- viability, T/C [20]: 51.5%
- viability, T/C (second compound 10 µM, first compound 0.949 µM): 41.6%
- viability, T/C (second compound 10 µM, first compound 3 µM): 46.5%

Structure (SMILES): Nc1ccn(C2OC(CO)C(O)C2(F)F)c(=O)n1 (stereo not given) + NC1CC1c1ccc(-c2cccc(O)c2)cc1
- IC50 (second compound 0.1 µM): > 300 nM
- IC50 (second compound 0.316 µM): > 300 nM
- IC50 (second compound 1 µM): > 300 nM
- IC50 (second compound 3.16 µM): > 300 nM
- IC50 (second compound 10 µM): > 300 nM
- viability, T/C (second compound 0.1 µM, first compound 0.000949 µM): 76.7%
- viability, T/C (second compound 0.1 µM, first compound 0.003 µM): 68.7%
- viability, T/C [1]: 63.3%
- viability, T/C [2]: 54%
- viability, T/C [3]: 64.9%
- viability, T/C [4]: 58%
- viability, T/C (second compound 0.316 µM, first compound 0.000949 µM): 65.9%
- viability, T/C (second compound 0.316 µM, first compound 0.003 µM): 54.7%
- viability, T/C [5]: 55.7%
- viability, T/C [6]: 57.4%
- viability, T/C [7]: 54.3%
- viability, T/C [8]: 64.2%
- viability, T/C (second compound 1 µM, first compound 0.000949 µM): 62.1%
- viability, T/C (second compound 1 µM, first compound 0.003 µM): 64.2%
- viability, T/C [9]: 57.5%
- viability, T/C [10]: 55.5%
- viability, T/C [11]: 58.5%
- viability, T/C [12]: 61.3%
- viability, T/C (second compound 3.16 µM, first compound 0.000949 µM): 65.3%
- viability, T/C (second compound 3.16 µM, first compound 0.003 µM): 58.3%
- viability, T/C [13]: 51.4%
- viability, T/C [14]: 52%
- viability, T/C [15]: 56.2%
- viability, T/C [16]: 47.3%
- viability, T/C (second compound 10 µM, first compound 0.000949 µM): 62.1%
- viability, T/C (second compound 10 µM, first compound 0.003 µM): 57.7%
- viability, T/C [17]: 51.1%
- viability, T/C [18]: 60.1%
- viability, T/C [19]: 48.5%
- viability, T/C [20]: 51.2%

From PubChem BioAssay AID1918941 (Molecular Pharmacology Branch, DTP, NCI, 2023)
